Experimental data reported in US10501522B2, “Peptides and combination of peptides for use in immunotherapy against various tumors” (IMMATICS BIOTECHNOLOGIES GMBH, priority 2015, dated 2019).

Tested on: CD8+ T cells
Test: In vitro T-cell priming assay with aAPCs loaded with peptide/MHC and anti-CD28, pMHC multimer readout
Assay type: cell-based, human
Settings: for Wells positive [%]: in vitro immunogenicity, HLA-A*02 restricted peptides, percentage of positive wells (among evaluable); for in vitro immunogenicity: wells: percentage of positive wells
Description: In order to obtain information regarding the immunogenicity of the TUMAPs of the present invention, the inventors performed investigations using an in vitro T-cell priming assay based on repeated stimulations of CD8+ T cells with artificial antigen presenting cells (aAPCs) loaded with peptide/MHC complexes and anti-CD28 antibody.
In order to perform in vitro stimulations by artificial antigen presenting cells loaded with peptide-MHC complex (pMHC) and anti-CD28 antibody, the inventors first isolated CD8+ T cells from fresh HLA-A*02 leukapheresis products via positive selection using CD8 microbeads (Miltenyi Biotec, Bergisch-Gladbach, Germany) of healthy donors obtained from the University clinics Mannheim, Germany, after informed consent. PBMCs and isolated CD8+ lymphocytes were incubated in T-cell medium (TCM) until use consisting of RPMI-Glutamax (Invitrogen, Karlsruhe, Germany) supplemented with 10% heat inactivated human AB serum (PAN-Biotech, Aidenbach, Germany), 100 U/ml Penicillin/100 μg/ml Streptomycin (Cambrex, Cologne, Germany), 1 mM sodium pyruvate (CC Pro, Oberdorla, Germany), 20 μg/ml Gentamycin (Cambrex). 2.5 ng/ml IL-7 (PromoCell, Heidelberg, Germany) and 10 U/ml IL-2 (Novartis Pharma, Nürnberg, Germany) were also added to the TCM at this step. Generation of pMHC/anti-CD28 coated beads, T-cell stimulations and readout was performed in a highly defined in vitro system using four different pMHC molecules per stimulation condition and 8 different pMHC molecules per readout condition.
The purified co-stimulatory mouse IgG2a anti human CD28 Ab 9.3 (Jung et al., 1987) was chemically biotinylated using Sulfo-N-hydroxysuccinimidobiotin as recommended by the manufacturer (Perbio, Bonn, Germany). Beads used were 5.6 μm diameter streptavidin coated polystyrene particles (Bangs Laboratories, Illinois, USA).
pMHC used for positive and negative control stimulations were A*0201/MLA-001 (peptide […] (SEQ ID NO. 289) from modified Melan-A/MART-1) and A*0201/DDX5-001 ([…] from DDX5, SEQ ID NO. 290), respectively.
800.000 beads/200 μl were coated in 96-well plates in the presence of 4×12.5 ng different biotin-pMHC, washed and 600 ng biotin anti-CD28 were added subsequently in a volume of 200 μl. Stimulations were initiated in 96-well plates by co-incubating […] CD8+ T cells with 2×10^5 washed coated beads in 200 μl TCM supplemented with 5 ng/ml IL-12 (PromoCell) for 3 days at 37° C. Half of the medium was then exchanged by fresh TCM supplemented with 80 U/ml IL-2 and incubating was continued for 4 days at 37° C. This stimulation cycle was performed for a total of three times. For the pMHC multimer readout using 8 different pMHC molecules per condition, a two-dimensional combinatorial coding approach was used as previously described (Andersen et al., 2012) with minor modifications encompassing coupling to 5 different fluorochromes. Finally, multimeric analyses were performed by staining the cells with Live/dead near IR dye (Invitrogen, Karlsruhe, Germany), CD8-FITC antibody clone SK1 (BD, Heidelberg, Germany) and fluorescent pMHC multimers. For analysis, a BD LSRII SORP cytometer equipped with appropriate lasers and filters was used. Peptide specific cells were calculated as percentage of total CD8+ cells. Evaluation of multimeric analysis was done using the FlowJo software (Tree Star, Oreg., USA). In vitro priming of specific multimer+ CD8+ lymphocytes was detected by comparing to negative control stimulations.

[1] = HLA-A*02 healthy donor CD8+ T cells, three stimulation cycles

4 (VLFGELPAL; listed as Homo sapiens) [compound 4]
Wells positive [%]: + (<20% = +)

9 (SLITGQDLLSV; listed as Homo sapiens) [compound 9]
Wells positive [%]: + (<20% = +)

14 (YTFSGDVQL; listed as Homo sapiens) [compound 14]
Wells positive [%]: + (<20% = +)

17 (GLLPSAESIKL; listed as Homo sapiens) [compound 17]
Wells positive [%]: + (<20% = +)

27 (GLLGKVTSV; listed as Homo sapiens) [compound 27]
Wells positive [%]: + (<20% = +)

29 (KMISAIPTL; listed as Homo sapiens) [compound 29]
Wells positive [%]: + (<20% = +)

34 (TLNTLDINL; listed as Homo sapiens) [compound 34]
Wells positive [%]: ++++ (≥70% = ++++)

35 (VIIKGLEEI; listed as Homo sapiens) [compound 35]
Wells positive [%]: + (<20% = +)

39 (YLEDGFAYV; listed as Homo sapiens) [compound 39]
Wells positive [%]: ++++ (≥70% = ++++)

50 (ILLSVLHQL; listed as Homo sapiens) [compound 50]
Wells positive [%]: + (<20% = +)

66 (AMFPDTIPRV; listed as Homo sapiens) [compound 66]
Wells positive [%]: + (<20% = +)

77 (ALYGNVQQV; listed as Homo sapiens) [compound 77]
Wells positive [%]: + (<20% = +)

89 (SLAETIFIV; listed as Homo sapiens) [compound 89]
Wells positive [%]: + (<20% = +)

97 (KLFEKSTGL; listed as Homo sapiens) [compound 97]
Wells positive [%]: + (<20% = +)

101 (SLLEVNEASSV; listed as Homo sapiens) [compound 101]
Wells positive [%]: + (<20% = +)

102 (GLYPVTLVGV; listed as Homo sapiens) [compound 102]
Wells positive [%]: + (<20% = +)

121 (ALYVQAPTV; listed as Homo sapiens) [compound 121]
Wells positive [%]: + (<20% = +)

157 (ILQDGQFLV; listed as Homo sapiens) [compound 157]
Wells positive [%]: + (<20% = +)

233 (SLFESLEYL; listed as Homo sapiens) [compound 233]
Wells positive [%]: + (<20% = +)

236 (KMSELQTYV; listed as Homo sapiens) [compound 236]
Wells positive [%]: + (<20% = +)

242 (KLQEEIPVL; listed as Homo sapiens) [compound 242]
Wells positive [%]: + (<20% = +)

246 (ALAGIVTNV; listed as Homo sapiens) [compound 246]
Wells positive [%]: + (<20% = +)

254 (ALGDKFLLRV; listed as Homo sapiens) [compound 254]
Wells positive [%]: + (<20% = +)

255 (FLMKNSDLYGA; listed as Homo sapiens) [compound 255]
Wells positive [%]: + (<20% = +)

257 (KLIDHQGLYL; listed as Homo sapiens) [compound 257]
Wells positive [%]: + (<20% = +)

260 (ALNESLVEC; listed as Homo sapiens) [compound 260]
Wells positive [%]: + (<20% = +)

263 (SIIEYLPTL; listed as Homo sapiens) [compound 263]
Wells positive [%]: + (<20% = +)

264 (TLHDQVHLL; listed as Homo sapiens) [compound 264]
Wells positive [%]: + (<20% = +)

267 (YLLDMPLWYL; listed as Homo sapiens) [compound 267]
Wells positive [%]: + (<20% = +)

287 (KIQEILTQV; listed as Homo sapiens) [compound 287]
in vitro immunogenicity: wells [1]: + (<20% = +)

288 (SLYKGLLSV; listed as Homo sapiens) [compound 288]
in vitro immunogenicity: donors (percentage of positive donors, HLA-A*02 healthy donor CD8+ T cells, three stimulation cycles): ++++ (≥70% = ++++) | in vitro immunogenicity: wells [1]: ++ (20%-49% = ++)
